Assay results from US10168342B2, “Lipid probes and uses thereof” (THE SCRIPPS RESEARCH INSTITUTE, priority 2015, dated 2019).

Tests used:
human NUCB1 [1] = target: T1, human NUCB1 (Homo sapiens, UniProt Q02818); experiment: FluoPol assay / high throughput screen with Fl-AEA and recombinant NUCB1; format: binding; settings: for suppression of the NUCB1-FluoPol signal (blockade of Fl-AEA binding): competitor lipids, recombinant NUCB1
T1 construct: made in house; host or cells: Escherichia coli BL21(DE3)
T1 sequence (Q02818 27-461): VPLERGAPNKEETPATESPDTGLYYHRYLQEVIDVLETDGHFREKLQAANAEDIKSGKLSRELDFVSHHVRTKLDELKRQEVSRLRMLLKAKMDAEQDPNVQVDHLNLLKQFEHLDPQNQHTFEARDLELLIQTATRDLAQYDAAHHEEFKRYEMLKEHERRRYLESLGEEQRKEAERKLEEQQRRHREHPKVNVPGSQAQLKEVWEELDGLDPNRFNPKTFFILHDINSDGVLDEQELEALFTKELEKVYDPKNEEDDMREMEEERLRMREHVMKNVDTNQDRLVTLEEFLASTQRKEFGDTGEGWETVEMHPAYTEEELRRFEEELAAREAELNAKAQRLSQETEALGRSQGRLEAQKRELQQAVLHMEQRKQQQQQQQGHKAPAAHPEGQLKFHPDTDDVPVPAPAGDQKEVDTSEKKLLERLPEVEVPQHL
Protocol: FluoPol conditions were optimized by screening various concentrations of Fl-AEA, hNUCB1, CaCl2 and Pluronic F-127 against positive and negative controls. Arachidonic acid (20 μM final) was used as a positive control, and DMSO as a negative. Additionally, protein-free controls were used to normalize for background signal. […] The Z′-factor for these conditions was determined to be 0.54, indicating a high signal to noise assay.
A 10 μL solution of hNUCB1 (1 μM), Fl-AEA (0.5 μM), CaCl2 (20 μM), and Pluronic F-127 (0.01%) was added to a Greiner 384-well plate. Additionally, in some wells protein was omitted to serve as a blank control for background signal. To the protein containing wells 16,000 compounds (50 nL in DMSO, 2 mM) from the Maybridge Hitfinder library were added by a pin-tool robot. Additionally, on each plate to some wells arachidonic acid (20 μM final) or DMSO were added as positive and negative controls to allow normalization between plates. The plates were allowed to incubate for 5 minutes at room temperature, then fluorescence polarization was measured by measuring fluorescence intensity through polarized 595 nm filters. Hits were selected based on maximal probe competition.

[2] = tested on: NAEs, NATs, AA and 2-AG in Neuro2a cells; experiment: Targeted LC-MS (MRM) analysis of lipids from Neuro2a cells; format: cell-based, mouse; settings: Neuro2a cells, 10 μM (PF-7845 1 μM)
Protocol: Discovery metabolite profiling was performed as described by Saghatelian et al., “Assignment of endogenous substrates to enzymes by global metabolite profiling,” Biochemistry 43:14332-14339 (2004) with several modifications. […] The media from the cells was removed and cells were washed with DPBS (2×5.0 mL) before adding freshly prepared media solutions containing vehicle or compound. After incubating for 6 h at 37° C. and subsequent removal of the media, the cells were harvested by scrapping in cold DPBS (3 mL) and pelleted by centrifugation in glass vials. The pellets were washed once with cold DPBS (3 mL) and then cold […] (2:1) (3 mL) was added. After vortexing, the vials were centrifuged (3,000×g, 10 min, 4° C.) and the bottom (organic) layer was transferred to a new glass vial and concentrated under a stream of N2. Samples were stored at −80° C. until the day of analysis when they were reconstituted in Mobile Phase A (100 μL, see below).
Neuro2a cells were treated and lipids extracted as described above. A mixture of internal standards [AEA-d4 (10 pmol), 2-AG-d5 (100 pmol), AA-d8 (100 pmol), PEA-d4 (100 pmol), PDA (1.0 nmol)] was added to the organic phase prior to extracting cells. NAEs, MAGs, AA and NATs were analyzed similarly to previously described methods (Saghatelian et al., 2004). The following MS parameters were used to measure the indicated metabolites by MRM (precursor ion, product ion, collision energy, polarity): NAE 20:4 (AEA) (348, 62, 12, positive), AEA-d4 (352, 66, 12, positive), NAE 16:0 (PEA) (300, 62, 12, positive), PEA-d4 (304, 62, 12, positive), NAE 18:0 (328, 62, 12, positive), NAE 18:1 (326, 62, 12, positive), NAE 18:2 (324, 62, 12, positive), 2-AG (379, 287, 8, positive), 2-AG-d5 (384, 287, 8, positive), AA (303, 259, 4, negative), AA-d8 (311, 267, 4, negative), NAT 20:4 (410, 80, 35, negative), NAT 22:1 (444, 80, 35, negative), NAT 24:1 (472, 80, 35, negative), NAT 24:0 (474, 80, 35, negative), NAT 26:0 (502, 80, 35, negative). The indicated lipids were quantified by measuring the area under the peak relative to an internal standard (AEA-d4 for AEA and NAE 18:2; PEA-d4 for PEA, NAE 18:1 and NAE 18:0; 2-AG-d5 for 2-AG; AA-d8 for AA and 20:4 NAT; PDA for all other NATs).

NENF = target: T2, NENF (Homo sapiens, UniProt Q9UMX5); experiment: In vitro gel-based competition of AEA-DA probe labeling of NENF; format: binding; settings: NENF-transfected HEK293T lysates; for competition of AEA-DA probe labeling of recombinant NENF: competitors 1-100 μM
T2 construct: Full-length cDNAs encoding for the each protein of interest were subcloned into pcDNA3.1 myc-His A; Myc (myc-His of pcDNA3.1 myc-His A); expressed in transfected cells; host or cells: HEK293T (lysates)
T2 sequence (Q9UMX5 32-172, species assumed): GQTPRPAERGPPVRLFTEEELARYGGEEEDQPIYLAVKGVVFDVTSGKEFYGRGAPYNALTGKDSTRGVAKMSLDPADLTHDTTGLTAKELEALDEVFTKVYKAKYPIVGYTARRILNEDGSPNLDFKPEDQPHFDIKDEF
Protocol: (§1) Full-length cDNAs encoding for the each protein of interest were subcloned into pcDNA3.1 myc-His A (Invitrogen) or used directly for transfections if available in a eukaryotic expression vector. HEK293T cells were grown to ˜70% confluence under standard growth conditions before adding the appropriate cDNA [control cells (“mock”) received an equal amount of empty pcDNA3.1 myc-His A vector] and FuGENE 6 or X-tremeGENE HP (Roche) transfection reagent according to the manufacturer's instructions. Cells were incubated for 36-48 hours before labeling in situ or harvesting for in vitro experiments.
Cell lysates (1.0 mg/mL), the indicated lipid probe (2.5 or 5 μM) and, for recombinant NUCB1 competition experiments, purified hNUCB1 (250 nM) and CaCl2 (100 μM) were mixed on ice. […] The samples were then irradiated with UV light and subjected to previously described click chemistry conditions. As before, each reaction was quenched with 4×SDS loading buffer (17 μL), and proteins were resolved using SDS-PAGE (10% acrylamide gel) and analyzed by in-gel fluorescent scanning on a Hitachi FMBIO-II flatbed fluorescence scanner. NUCB1 competition was quantitatively assessed by measuring the fluorescent intensity of the corresponding gel band using ImageJ 1.48v and normalizing this value by a non-competed gel band to control for loading differences.
(§2) Metabolite data are shown as mean±SEM (n=3-5/group). Differences between two groups were determined using Student's t test (unpaired, two-tailed) and significance was denoted for P values<0.05.

human NUCB1 [3] = target: T1, human NUCB1; experiment: In vitro gel-based competition of AEA-DA probe labeling of NUCB1; format: binding; settings: AEA-DA 5.0 μM, lipids 20×, NUCB1-transfected HEK293T lysates
Protocol: Human NUCB1 lacking the N-terminal signal sequence (M1-A26) was subcloned into pET45b(+) vector (Novagen) using the following PCR primers for amplification: 5′-CATCAATTGTGTGCCCCTGGAGAGAG-3′ and 5′-AGCAAGCTTTACAGATGTTGGGGCACC-3′. Following transformation of Escherichia coli strain BL21(DE3) with hNucb1ΔSSpET45b(+), a single colony was isolated and grown in Terrific Broth containing carbenicillin (100 mg/L) at 37° C. to an OD600 of 0.8. Protein expression was induced with IPTG (1.0 mM) and the cells were incubated at 20° C. with shaking overnight. After centrifugation, cells pellets were resuspended in cold buffer containing HEPES (0.05M), NaCl (0.03 M), imidazole (5.0 mM), DNase (0.1 mg/mL), MgCl2 (1.0 mM), CaCl2 (1.0 mM) and EDTA-free Complete Protease Inhibitor Cocktail and lysed using a microfluidizer. […] The suspension was applied to a column and the retained resin was washed with HEPES buffer containing 500 mM NaCl until the eluent was clean of DNA and protein (A280/260) and then with HEPES buffer containing 10 mM imidazole (5 mL/1 mL resin). Protein was then slowly eluted with HEPES buffer containing 50 mM imidazole in 1.0 mL fractions and the combined fractions containing hNUCB1 were passed through a Sephadex G-25M column to remove imidazole and concentrated in an Amicon centrifugal filter device (Millipore). These conditions produced hNUCB1 at approximately 10 mg/L of culture; however, several lower molecular weight fragments were also present in this preparation. hNUCB1 was further purified by size exclusion chromatography.
Cell lysates (1.0 mg/mL), the indicated lipid probe (2.5 or 5 μM) and, for recombinant NUCB1 competition experiments, purified hNUCB1 (250 nM) and CaCl2 (100 μM) were mixed on ice. DMSO or competitors were then added to the proteome mixture (50 μM) in 96-well plates and each sample was incubated for 15 min at 37° C. The samples were then irradiated with UV light and subjected to previously described click chemistry conditions. As before, each reaction was quenched with 4×SDS loading buffer (17 μL), and proteins were resolved using SDS-PAGE (10% acrylamide gel) and analyzed by in-gel fluorescent scanning on a Hitachi FMBIO-II flatbed fluorescence scanner. NUCB1 competition was quantitatively assessed by measuring the fluorescent intensity of the corresponding gel band using ImageJ 1.48v and normalizing this value by a non-competed gel band to control for loading differences.
as §2

recombinant TMEM97 = target: T3, recombinant TMEM97 (Homo sapiens, UniProt Q5BJF2); experiment: In situ gel-based competition of arachidonoyl probe labeling of recombinant TMEM97 in HEK293T cells; format: cell-based; settings: TMEM97-transfected HEK293T cells, probe 5 μM, competitor 25 μM
T3 construct: Full-length cDNAs encoding for the each protein of interest were subcloned into pcDNA3.1 myc-His A; expressed in transfected cells; host or cells: HEK293T
T3 sequence (Q5BJF2 whole entry, species assumed): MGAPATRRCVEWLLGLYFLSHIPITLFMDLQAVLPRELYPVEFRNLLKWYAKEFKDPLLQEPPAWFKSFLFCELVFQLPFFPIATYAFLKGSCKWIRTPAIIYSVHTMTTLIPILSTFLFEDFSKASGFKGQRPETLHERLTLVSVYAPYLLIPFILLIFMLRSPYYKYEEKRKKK
Protocol: Proteomes were diluted to 1.0 mg/mL (total protein concentration) and 50 μL of each proteome was transferred to separate wells in a 96-well plate.
as §1

[4] = tested on: AEA-DA lipid probe targets in Neuro2a cells; settings: Neuro2a cells, AEA-DA 5 μM

Structure (SMILES): CCCCC[C@H](O)/C=C/[C@H]1C(=O)C[C@H](O)[C@@H]1C/C=C\CCCC(=O)NCCO [PGD2-EA]
- suppression of the NUCB1-FluoPol signal (blockade of Fl-AEA binding) (human NUCB1 [1]): minimal blockade

Structure (SMILES): O=C(Nc1cccnn1)N1CCC(=Cc2cccc(Oc3ccc(C(F)(F)F)cn3)c2)CC1 [PF-7845, reference compound]
- 2-AG levels [2]: greater degree
- cellular concentrations of NAEs and NATs ([2]; 6 h): elevated

Structure (SMILES): CC(C)CCC[C@@H](C)[C@H]1CC[C@H]2[C@@H]3CC=C4C[C@@H](O)CC[C@]4(C)[C@H]3CC[C@]12C [cholesterol]
- suppression of the NUCB1-FluoPol signal (blockade of Fl-AEA binding) (human NUCB1 [1]): minimal blockade

Structure (SMILES): CCCCC/C=C\C/C=C\C/C=C\C/C=C\CCCC(=O)NCCCCCNC(=O)c1ccc(-c2c3ccc(=[N+](C)C)cc-3oc3cc(N(C)C)ccc23)c(C(=O)[O-])c1 [Fl-AEA, 2-(6-(Dimethylamino)-3-(dimethylmninio)-3H-xanthen-9-yl)-5-((5-((5Z,8Z,11Z,14Z)-icosa-5,8,11,14-tetraenamido)pentyl)carbamoyl)benzoate]
- binding to recombinant, purified human NUCB1 (FluoPol signal) (human NUCB1 [1]; Fl-AEA 0.5 μM, NUCB1 1.0 μM): substantial increase in fluorescence polarization (FluoPol) signal

Structure (SMILES): CCCCCCCCCCCCC/C=C/[C@@H](O)[C@@H](N)CO [sphingosine]
- suppression of the NUCB1-FluoPol signal (blockade of Fl-AEA binding) (human NUCB1 [1]): minimal blockade

Structure (SMILES): CCCCC/C=C\C/C=C\C/C=C\C/C=C\CCCC(=O)O [AA, Arachidonic acid]
- competition of AEA-DA probe labeling of recombinant NENF (NENF): competitively blocked
- competition of AEA-DA probe labeling of recombinant NUCB1 by lipids (human NUCB1 [3]): blocked
- suppression of the NUCB1-FluoPol signal (blockade of Fl-AEA binding) (human NUCB1 [1]): Concentration-dependent suppression

Structure (SMILES): CCCCC[C@H](O)/C=C/C1=C(CCCCCCC(=O)O)C(=O)CC1 [prostaglandin B1]
- suppression of the NUCB1-FluoPol signal (blockade of Fl-AEA binding) (human NUCB1 [1]): minimal blockade

Structure (SMILES): CCCCC[C@H](O)/C=C/[C@@H]1[C@@H](C/C=C\CCCC(=O)NCCO)[C@@H](O)C[C@H]1O [PGF2α-EA]
- suppression of the NUCB1-FluoPol signal (blockade of Fl-AEA binding) (human NUCB1 [1]): minimal blockade

Structure (SMILES): CCCCC/C=C\C/C=C\C/C=C\C/C=C\CCCC(=O)OC(CO)CO [2-AG]
- competition of AEA-DA probe labeling of recombinant NUCB1 by lipids (human NUCB1 [3]): blocked
- suppression of the NUCB1-FluoPol signal (blockade of Fl-AEA binding) (human NUCB1 [1]): Concentration-dependent suppression

Structure (SMILES): C=Cc1c(C)c2cc3[n-]c(cc4nc(cc5nc(cc1[n-]2)C(C)=C5CCC(=O)O)C(CCC(=O)O)=C4C)c(C)c3C=C.[Cl-].[Fe+3] [hemin]
- IC50 (NENF; read-out: IC50, inhibition of AEA-DA labeling of NENF): 2 µM
- competition of AEA-DA probe labeling of recombinant NENF (NENF): inhibited in a concentration-dependent manner

Structure (SMILES): COc1cc2c(cc1OC)CN(CCc1ccc(NC(=O)c3cccc4c(=O)c5cccc(OC)c5[nH]c34)cc1)CC2 [elacridar, reference compound]
- competition of arachidonoyl probe labeling of recombinant TMEM97 (recombinant TMEM97): competition was observed
- concentration blocking lipid probe labeling of FECH, ABCB1B and TMEM97 (as low as) [4]: 0.5 µM

Structure (SMILES): CCCCC[C@H](O)/C=C/[C@H]1C(=O)C[C@H](O)[C@@H]1C/C=C\CCCC(=O)O [prostaglandin D2]
- suppression of the NUCB1-FluoPol signal (blockade of Fl-AEA binding) (human NUCB1 [1]): minimal blockade

Structure (SMILES): CCCCC[C@H](O)/C=C/[C@H]1C=CC(=O)[C@@H]1CCCCCCC(=O)O [prostaglandin A1]
- suppression of the NUCB1-FluoPol signal (blockade of Fl-AEA binding) (human NUCB1 [1]): minimal blockade
